Here are results for two compounds from PMC8213057, “Targeting ALK2: An Open Science Approach to Developing Therapeutics for the Treatment of Diffuse Intrinsic Pontine Glioma” (Journal of Medicinal Chemistry, 2020).

Where “and” joins values, the source holds several entries; their conditions need not be identical. Equal entries are not always repeated.

One experiment deals with T1, KHS/MAP4K5 (Homo sapiens, UniProt Q9Y4K4).
T1 construct: purchased Reaction Biology Corporation
Nature of the experiment: 375-member kinase panel. As to conditions: Run 1, Run 2; for % enzyme activity: 1 μM; for remaining activity at 1 µM: read-out: % enzyme activity, 1 μM. The experiment is classed as biochemical.

The next experiment addresses T2, MINK/MINK1 (Homo sapiens, UniProt Q8N4C8).
T2 construct: purchased Reaction Biology Corporation
Nature of the experiment: 375-member kinase panel. The experiment is classed as biochemical. Conditions: Run 1, Run 2; for % enzyme activity: 1 μM; for remaining activity at 1 µM: read-out: % enzyme activity, 1 μM.

The target in another experiment is CDK2/Cyclin A1 (Homo sapiens, UniProt P24941). As to conditions: 1 μM; Run 1, Run 2.
A further experiment has as its target CDK6/cyclin D3 (Homo sapiens, UniProt Q00534). As to conditions: 1 μM; Run 1, Run 2.
Another experiment addresses T3, LATS2 (Homo sapiens, UniProt Q9NRM7).
T3 sequence (Q9NRM7 1-1088): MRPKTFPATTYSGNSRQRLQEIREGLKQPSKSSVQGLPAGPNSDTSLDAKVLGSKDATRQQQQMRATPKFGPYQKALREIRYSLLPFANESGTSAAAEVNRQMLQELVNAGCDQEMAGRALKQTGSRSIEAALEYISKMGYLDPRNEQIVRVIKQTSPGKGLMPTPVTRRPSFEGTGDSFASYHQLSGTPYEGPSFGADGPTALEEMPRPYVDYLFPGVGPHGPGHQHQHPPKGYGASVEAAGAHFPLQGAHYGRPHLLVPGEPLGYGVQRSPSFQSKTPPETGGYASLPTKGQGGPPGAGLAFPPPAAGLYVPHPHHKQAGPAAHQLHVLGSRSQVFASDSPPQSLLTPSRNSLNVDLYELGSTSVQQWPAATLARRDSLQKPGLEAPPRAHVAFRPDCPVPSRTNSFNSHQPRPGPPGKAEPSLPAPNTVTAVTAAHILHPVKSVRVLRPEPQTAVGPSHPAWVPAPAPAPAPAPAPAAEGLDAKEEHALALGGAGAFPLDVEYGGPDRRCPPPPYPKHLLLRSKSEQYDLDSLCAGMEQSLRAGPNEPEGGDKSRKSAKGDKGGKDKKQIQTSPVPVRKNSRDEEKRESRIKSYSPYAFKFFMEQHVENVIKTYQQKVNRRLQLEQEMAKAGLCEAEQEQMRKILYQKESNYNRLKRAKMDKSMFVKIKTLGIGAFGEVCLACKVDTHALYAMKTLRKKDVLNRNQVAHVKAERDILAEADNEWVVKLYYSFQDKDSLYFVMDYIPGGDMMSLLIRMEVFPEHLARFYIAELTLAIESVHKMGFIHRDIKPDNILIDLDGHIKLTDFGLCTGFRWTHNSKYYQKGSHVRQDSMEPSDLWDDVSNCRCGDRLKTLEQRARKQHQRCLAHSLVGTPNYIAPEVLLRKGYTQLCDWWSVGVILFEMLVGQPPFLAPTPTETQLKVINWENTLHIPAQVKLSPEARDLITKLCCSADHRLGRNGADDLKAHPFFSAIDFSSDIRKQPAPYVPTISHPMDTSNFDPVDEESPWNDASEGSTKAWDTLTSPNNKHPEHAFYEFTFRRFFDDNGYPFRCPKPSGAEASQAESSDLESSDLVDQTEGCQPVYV
As to conditions: 1 μM; Run 1, Run 2.

A further experiment deals with T4, PKD2/PRKD2 (Homo sapiens, UniProt Q9BZL6).
T4 sequence (Q9BZL6 1-878): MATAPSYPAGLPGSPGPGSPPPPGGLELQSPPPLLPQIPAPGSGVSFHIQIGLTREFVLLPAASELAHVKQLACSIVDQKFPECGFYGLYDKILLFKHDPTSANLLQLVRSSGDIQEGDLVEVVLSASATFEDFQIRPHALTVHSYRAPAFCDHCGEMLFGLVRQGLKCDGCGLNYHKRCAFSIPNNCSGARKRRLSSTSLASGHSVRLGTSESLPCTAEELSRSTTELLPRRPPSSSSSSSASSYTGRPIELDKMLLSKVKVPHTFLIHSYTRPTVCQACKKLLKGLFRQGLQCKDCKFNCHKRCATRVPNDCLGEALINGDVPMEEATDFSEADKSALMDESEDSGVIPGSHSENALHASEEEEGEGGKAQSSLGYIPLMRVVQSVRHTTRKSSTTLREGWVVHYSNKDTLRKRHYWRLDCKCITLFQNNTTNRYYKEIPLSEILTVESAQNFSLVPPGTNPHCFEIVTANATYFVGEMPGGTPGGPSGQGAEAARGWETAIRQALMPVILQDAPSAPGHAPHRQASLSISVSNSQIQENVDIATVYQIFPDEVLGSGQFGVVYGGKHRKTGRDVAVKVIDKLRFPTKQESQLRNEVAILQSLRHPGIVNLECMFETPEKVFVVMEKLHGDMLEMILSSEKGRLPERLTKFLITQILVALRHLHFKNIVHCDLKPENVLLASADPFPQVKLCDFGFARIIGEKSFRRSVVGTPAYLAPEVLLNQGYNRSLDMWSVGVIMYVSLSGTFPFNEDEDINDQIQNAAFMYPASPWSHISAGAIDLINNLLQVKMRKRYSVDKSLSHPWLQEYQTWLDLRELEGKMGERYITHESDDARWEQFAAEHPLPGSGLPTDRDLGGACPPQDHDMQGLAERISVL
Conditions: 1 μM; Run 1, Run 2.

The next experiment has as its target SBK1 (Homo sapiens, UniProt Q52WX2). Conditions: 1 μM; Run 1, Run 2.
The next experiment addresses CDK1/cyclin A (Homo sapiens, UniProt P06493). Nature of the experiment: biochemical. As to conditions: read-out: % enzyme activity, 1 μM; Run 1, Run 2.
Another experiment deals with TRKB (Homo sapiens, UniProt Q16620). Nature of the experiment: biochemical. As to conditions: read-out: % enzyme activity, 1 μM; Run 1, Run 2.
Sequence of TRKB (Q16620 32-822): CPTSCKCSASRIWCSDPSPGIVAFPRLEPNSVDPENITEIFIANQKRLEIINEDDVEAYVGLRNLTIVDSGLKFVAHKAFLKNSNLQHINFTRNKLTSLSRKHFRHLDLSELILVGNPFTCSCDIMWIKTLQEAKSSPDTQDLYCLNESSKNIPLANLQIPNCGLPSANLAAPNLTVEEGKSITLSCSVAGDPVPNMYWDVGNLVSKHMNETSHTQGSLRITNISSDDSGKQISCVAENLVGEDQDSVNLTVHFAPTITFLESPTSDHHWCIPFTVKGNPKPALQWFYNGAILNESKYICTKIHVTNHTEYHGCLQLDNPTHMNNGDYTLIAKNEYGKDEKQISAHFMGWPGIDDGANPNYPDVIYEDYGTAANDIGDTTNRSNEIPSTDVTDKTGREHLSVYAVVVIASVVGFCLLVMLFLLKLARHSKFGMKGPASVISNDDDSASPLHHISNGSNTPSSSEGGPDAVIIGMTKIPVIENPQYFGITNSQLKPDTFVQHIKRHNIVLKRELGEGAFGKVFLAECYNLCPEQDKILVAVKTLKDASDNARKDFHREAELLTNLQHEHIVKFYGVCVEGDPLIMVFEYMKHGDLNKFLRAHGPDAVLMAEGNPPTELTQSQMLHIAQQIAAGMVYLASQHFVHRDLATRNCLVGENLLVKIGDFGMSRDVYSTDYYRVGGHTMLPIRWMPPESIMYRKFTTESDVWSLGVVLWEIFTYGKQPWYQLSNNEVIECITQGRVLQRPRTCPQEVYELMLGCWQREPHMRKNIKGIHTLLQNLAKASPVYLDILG

T1 sequence (Q9Y4K4 whole entry): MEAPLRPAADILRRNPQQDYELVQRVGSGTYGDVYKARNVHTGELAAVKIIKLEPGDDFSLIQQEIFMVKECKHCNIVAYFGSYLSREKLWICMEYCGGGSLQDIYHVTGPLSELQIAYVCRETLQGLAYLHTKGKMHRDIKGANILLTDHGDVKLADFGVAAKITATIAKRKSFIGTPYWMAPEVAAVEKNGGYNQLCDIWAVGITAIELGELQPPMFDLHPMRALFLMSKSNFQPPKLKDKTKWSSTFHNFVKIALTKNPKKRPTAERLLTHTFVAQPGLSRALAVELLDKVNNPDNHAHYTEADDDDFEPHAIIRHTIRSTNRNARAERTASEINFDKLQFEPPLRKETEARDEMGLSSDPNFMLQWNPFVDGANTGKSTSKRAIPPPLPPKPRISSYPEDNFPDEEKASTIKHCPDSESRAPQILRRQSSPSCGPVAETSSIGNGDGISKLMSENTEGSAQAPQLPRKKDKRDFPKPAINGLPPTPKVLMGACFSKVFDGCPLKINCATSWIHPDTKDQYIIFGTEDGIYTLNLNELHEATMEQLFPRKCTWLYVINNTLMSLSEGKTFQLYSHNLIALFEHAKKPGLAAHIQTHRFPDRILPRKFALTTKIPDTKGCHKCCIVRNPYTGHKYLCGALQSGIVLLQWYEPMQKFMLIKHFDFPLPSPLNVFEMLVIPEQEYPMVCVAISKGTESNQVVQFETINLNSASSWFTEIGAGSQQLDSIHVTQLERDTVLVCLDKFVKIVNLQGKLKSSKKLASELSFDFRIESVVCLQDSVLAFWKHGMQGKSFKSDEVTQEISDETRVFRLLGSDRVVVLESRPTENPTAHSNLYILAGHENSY
T2 sequence (Q8N4C8 whole entry): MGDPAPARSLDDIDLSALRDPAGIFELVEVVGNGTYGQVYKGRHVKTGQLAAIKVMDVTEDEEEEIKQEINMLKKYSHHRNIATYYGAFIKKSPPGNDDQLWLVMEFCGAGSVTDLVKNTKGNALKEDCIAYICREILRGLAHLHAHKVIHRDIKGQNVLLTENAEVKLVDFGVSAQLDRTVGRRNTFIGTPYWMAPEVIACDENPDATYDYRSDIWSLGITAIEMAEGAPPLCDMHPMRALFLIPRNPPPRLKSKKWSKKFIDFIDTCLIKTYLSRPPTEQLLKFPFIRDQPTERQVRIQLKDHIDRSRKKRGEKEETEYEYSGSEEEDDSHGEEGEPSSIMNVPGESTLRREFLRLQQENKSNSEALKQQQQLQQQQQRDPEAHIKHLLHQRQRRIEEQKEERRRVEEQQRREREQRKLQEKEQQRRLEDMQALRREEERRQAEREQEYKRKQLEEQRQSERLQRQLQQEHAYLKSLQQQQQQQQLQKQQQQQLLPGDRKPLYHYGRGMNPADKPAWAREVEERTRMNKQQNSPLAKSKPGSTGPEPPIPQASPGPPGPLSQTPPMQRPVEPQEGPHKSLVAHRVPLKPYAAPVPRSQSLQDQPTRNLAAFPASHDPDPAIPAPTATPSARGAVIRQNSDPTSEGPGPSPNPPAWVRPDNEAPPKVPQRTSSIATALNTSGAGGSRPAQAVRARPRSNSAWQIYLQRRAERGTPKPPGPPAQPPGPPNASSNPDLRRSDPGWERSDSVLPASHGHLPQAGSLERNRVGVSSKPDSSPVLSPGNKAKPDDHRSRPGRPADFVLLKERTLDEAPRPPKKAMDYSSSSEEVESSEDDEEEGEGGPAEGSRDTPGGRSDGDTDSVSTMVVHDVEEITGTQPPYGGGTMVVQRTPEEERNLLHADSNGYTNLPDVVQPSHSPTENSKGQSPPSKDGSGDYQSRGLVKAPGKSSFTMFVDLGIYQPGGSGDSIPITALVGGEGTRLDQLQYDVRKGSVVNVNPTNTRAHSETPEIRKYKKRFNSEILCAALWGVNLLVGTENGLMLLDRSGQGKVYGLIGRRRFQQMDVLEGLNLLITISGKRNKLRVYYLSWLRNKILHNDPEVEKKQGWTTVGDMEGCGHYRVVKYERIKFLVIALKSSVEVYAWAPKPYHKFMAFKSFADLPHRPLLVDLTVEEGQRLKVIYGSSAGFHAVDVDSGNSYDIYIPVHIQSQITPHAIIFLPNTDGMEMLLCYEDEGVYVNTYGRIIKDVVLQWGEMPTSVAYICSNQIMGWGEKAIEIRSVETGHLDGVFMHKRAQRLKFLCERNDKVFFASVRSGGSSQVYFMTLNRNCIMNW
Sequence of CDK1/cyclin A (P20248 whole entry): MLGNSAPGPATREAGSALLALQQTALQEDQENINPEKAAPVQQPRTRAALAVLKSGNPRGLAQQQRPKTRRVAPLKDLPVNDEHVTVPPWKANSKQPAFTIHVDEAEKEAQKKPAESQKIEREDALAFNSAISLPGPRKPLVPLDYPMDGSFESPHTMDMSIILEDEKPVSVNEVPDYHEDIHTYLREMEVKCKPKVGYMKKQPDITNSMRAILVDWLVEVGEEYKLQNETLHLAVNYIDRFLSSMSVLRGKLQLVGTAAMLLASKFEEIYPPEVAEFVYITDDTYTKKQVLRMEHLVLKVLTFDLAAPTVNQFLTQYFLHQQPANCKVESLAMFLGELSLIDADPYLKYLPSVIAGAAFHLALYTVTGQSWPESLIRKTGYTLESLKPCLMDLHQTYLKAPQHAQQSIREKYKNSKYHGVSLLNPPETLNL
Sequence of CDK1/cyclin A (P06493 whole entry): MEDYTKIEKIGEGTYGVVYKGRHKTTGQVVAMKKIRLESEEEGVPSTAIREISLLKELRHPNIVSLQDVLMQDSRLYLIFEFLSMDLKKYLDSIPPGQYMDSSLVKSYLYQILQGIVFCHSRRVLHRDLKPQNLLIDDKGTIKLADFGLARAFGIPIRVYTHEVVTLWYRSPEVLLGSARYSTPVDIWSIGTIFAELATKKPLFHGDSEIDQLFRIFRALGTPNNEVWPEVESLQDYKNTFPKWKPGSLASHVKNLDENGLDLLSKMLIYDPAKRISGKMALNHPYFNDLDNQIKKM
Sequence of CDK6/cyclin D3 (Q00534 whole entry): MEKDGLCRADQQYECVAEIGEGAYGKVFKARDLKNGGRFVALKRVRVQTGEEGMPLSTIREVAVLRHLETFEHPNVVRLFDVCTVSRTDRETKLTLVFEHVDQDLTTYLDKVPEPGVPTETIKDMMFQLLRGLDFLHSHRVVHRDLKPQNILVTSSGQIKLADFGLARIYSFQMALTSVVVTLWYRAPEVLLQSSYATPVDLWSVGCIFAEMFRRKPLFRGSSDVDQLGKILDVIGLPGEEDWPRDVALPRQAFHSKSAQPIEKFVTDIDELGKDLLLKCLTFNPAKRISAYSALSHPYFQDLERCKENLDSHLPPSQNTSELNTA
Sequence of CDK6/cyclin D3 (P30281 whole entry partner): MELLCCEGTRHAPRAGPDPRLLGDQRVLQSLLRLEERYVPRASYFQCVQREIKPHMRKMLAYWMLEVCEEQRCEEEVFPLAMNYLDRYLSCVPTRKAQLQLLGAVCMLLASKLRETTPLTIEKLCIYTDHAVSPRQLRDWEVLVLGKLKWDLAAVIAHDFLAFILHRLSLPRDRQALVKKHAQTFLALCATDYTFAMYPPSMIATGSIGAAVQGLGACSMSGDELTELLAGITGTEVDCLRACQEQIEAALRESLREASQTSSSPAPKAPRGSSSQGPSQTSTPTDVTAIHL
Sequence of SBK1 (Q52WX2 whole entry): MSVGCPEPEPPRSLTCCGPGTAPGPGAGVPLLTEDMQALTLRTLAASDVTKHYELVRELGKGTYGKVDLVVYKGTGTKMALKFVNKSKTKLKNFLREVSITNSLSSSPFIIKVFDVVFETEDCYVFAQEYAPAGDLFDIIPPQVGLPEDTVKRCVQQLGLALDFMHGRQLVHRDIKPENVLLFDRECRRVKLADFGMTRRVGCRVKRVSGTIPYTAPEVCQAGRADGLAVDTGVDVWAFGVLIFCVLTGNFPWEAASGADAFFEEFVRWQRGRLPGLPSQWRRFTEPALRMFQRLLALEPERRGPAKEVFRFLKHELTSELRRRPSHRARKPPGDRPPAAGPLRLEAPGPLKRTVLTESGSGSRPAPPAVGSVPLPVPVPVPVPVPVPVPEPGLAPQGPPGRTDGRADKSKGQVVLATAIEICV

Take `COc1cc(-c2cncc(-c3ccc(N4CCN(C)CC4)cc3)c2C)cc(F)c1C(N)=O` [Compound 26a, 2-Fluoro-6-methoxy-4-(4-methyl-5-(4-(4-methylpiperazin-1-yl)phenyl)pyridin-3-yl)benzamide]: in the experiment on DDR1, the % enzyme activity at 1 μM was 32.1% and 31.2%. Further, the “% enzyme activity” value is listed as 39.28% on KHS/MAP4K5; 22.65% at MINK/MINK1; 99.67% on CDK2/Cyclin A1; 86.25% on CDK6/cyclin D3; 104.67% at LATS2; 95.72% on PKD2/PRKD2. Further, at SBK1, the “% enzyme activity” value was determined as 93.74%. Besides, the remaining activity at 1 µM on KHS/MAP4K5 was 39.7%; on MINK/MINK1, 24.1%; on CDK1/cyclin A, 94.7%; on TRKB, 100%.

For the compound `COc1cc(-c2cncc(-c3ccc(N4C[C@@H](C)N(C)[C@@H](C)C4)cc3)c2C)cc(F)c1C(N)=O` [Compound 26c, 2-Fluoro-6-methoxy-4-(4-methyl-5-(4-((3R,5S)-3,4,5-trimethylpiperazin-1-yl)phenyl)pyridin-3-yl)benzamide], the % enzyme activity at 1 μM in the experiment with DDR1 was 57.2% and 55.5%. In addition, the “% enzyme activity” value on KHS/MAP4K5 is recorded as 40.60%; on MINK/MINK1, 29.65%; on CDK2/Cyclin A1, 97.14%; on CDK6/cyclin D3 it was 102.19%; at LATS2, 100.36%; at PKD2/PRKD2 it was 98.89%. In addition, the “% enzyme activity” value at SBK1 amounted to 101.08%. Besides, the remaining activity at 1 µM at KHS/MAP4K5 was determined as 41.7%; at MINK/MINK1, 30.2%; on CDK1/cyclin A, 90.8%; at TRKB, 99%.
